# Measured values taken from US6750244B2, “Compounds active at a novel site on receptor-operated calcium channels useful for treatment of neurological disorders and diseases” (NPS Pharmaceuticals, Inc., priority 1993, dated 2004).
# pIC50: −log10 of the molar value. Where two headings read alike, the source gives them in different places. Marks after values point to notes of the source that are not given here.
# How the values were obtained:
# induction of LTP = tested on: induction of LTP; design: species or system rat; settings: at 300 μM
# sound-induced seizures = test: Sound-induced seizures in Frings mice (reflex epilepsy); format: in vivo; settings: for ED50: Mus musculus, Frings mice
# NMDA receptor [1] = test: Inhibition of NMDA/glycine-induced increases in intracellular calcium in cultured rat cerebellar granule cells (RCGC); format: cell-based; settings: NMDA/glycine-induced increases in intracellular calcium, cultured rat cerebellar granule cells; read-out: IC50 (μM) vs. NMDA
# NMDA receptor [2] = settings: rat hippocampal slices
# Procedure: Glutamate-mediated transmission at synapses of Schaffer collateral fibers and CA1 pyramidal cells was measured in slices of rat brain containing the hippocampus. This assay measures electrophysiologically the postsynaptic depolarization caused by the presynaptic release of glutamate, and can readily distinguish synaptic transmission mediated by NMDA or AMPA receptors.
# [3] = tested on: mean arterial blood pressure; settings: for no significant cardiovascular activity in anesthetized rats at doses up to: i.v.
# [4] = tested on: NMDA receptor-ionophore complex (site labeled by [3H]MK-801); test: Inhibition of [3H]MK-801 binding in rat cortical/hippocampal washed membrane preparations; settings: for IC50: read-out: IC50 (μM) vs. [3H]MK-801, rat cortical/hippocampal washed membranes
# motor performance = test: Acute motor impairment (rotorod) in mice; settings: Frings mice, i.c.v. injection
# Procedure: (§1) In this assay, Frings and CF1 mice were injected with test compound and placed on a knurled rod which rotated at a speed of 6 rpm. The ability of the mice to maintain equilibrium for long periods of time was determined; those mice that were unable to maintain equilibrium on the rotorod for 1 min in each of 3 trials were considered impaired.
# serotonin uptake site = molecular target: T1, serotonin uptake site (Rattus norvegicus, UniProt P31652); test: Serotonin uptake binding assay: [3H]citalopram binding to rat forebrain membranes
# T1 construct: from tissue; host or cells: rat forebrain membranes (per the assay title)
# L-type calcium channel = tested on: T2, L-type calcium channel; test: Inhibition of KCl depolarization-induced increases in intracellular calcium in cultured rat cerebellar granule cells; format: cell-based; settings: cultured rat cerebellar granule cells; read-out: L-type calcium channel: estimated IC50, KCl depolarization-induced increases in intracellular calcium
# T2 construct: L-type calcium channel: estimated IC50, KCl depolarization-induced increases in intracellular calcium; other: cultured
# Excerpt: The ability of arylalkylamines to inhibit dihydropyridine-sensitive Ca^2+ channels was examined in cerebellar granule cells and a rat aortic smooth muscle cell line, A7r5 cells.
# [5] = molecular target: T3, norepinephrine uptake site (Rattus norvegicus, UniProt Q63380); test: Norepinephrine uptake binding assay: [3H]desipramine binding to rat cortical membranes
# T3 construct: from tissue; host or cells: rat cortical membranes (per the assay title)
# focal ischemic stroke = test: Rat model of focal ischemic stroke (vessel occlusion); format: in vivo, rats; settings: i.p. 2 mg/kg 30 min prior to vessel occlusion and 2 mg/kg 3 hr post-occlusion
# dopamine uptake site = molecular target: T4, dopamine uptake site (Cavia porcellus, UniProt H0WCX4); test: Dopamine uptake binding assay: [3H]WIN-35,428 binding to guinea pig striatal membranes
# T4 construct: from tissue; host or cells: guinea pig striatal membranes (per the assay title)
# in vivo = settings: mouse, in vivo
# Procedure: as §1
# [6] = tested on: central muscarinic cholinergic receptor; format: binding, rat
# seizure threshold = test: i.v. Metrazol test (seizure threshold) in mice; format: in vivo
# behavior [7] = test: Behavioral effects in conscious male Wistar rats
# [8] = tested on: maximal electroshock-induced seizures; test: Maximal electroshock-induced seizures in mice; format: in vivo; settings: Mus musculus, ip; mice
# behavior [9] = test: Behavioral effects in conscious beagle dogs
# focal ischemia = test: Photothrombotic (Rose Bengal) model of focal cerebral ischemia; format: in vivo, rat; settings: 10 mg/kg i.p. at 15 min, 3 hr, and again 6 hr post-occlusion
# Excerpt: In a third model of focal cerebral ischemia in the rat, an ischemic infarct was produced by a photothrombotic method using the dye Rose Bengal.
# temporary focal ischemia = test: Temporary focal cerebral ischemia (middle cerebral artery occlusion, suture withdrawn after 2 hr); format: in vivo, rat
# Procedure: In a fourth model of focal cerebral ischemia in the rat, the middle cerebral artery was temporarily occluded by passing a small piece of suture thread through the carotid artery to the region of the middle cerebral artery. The suture thread was withdrawn after an ischemic period of 2 hr. Core body temperature was maintained at 37° C. […]
# [10] = tested on: mean arterial pressure, heart rate, ECG; test: Cardiovascular activity in conscious beagle dogs
# PBQ-elicited writhing = format: in vivo; settings: 4 mg/kg i.p.
# Procedure: In the first series of experiments, the animals were administered an unpleasant stimulus (2-phenyl-1,4-benzoquinone, PBQ) which elicits a writhing response (abdominal stretching). Typically, the number of writhes occurring in a 5 min observation period is recorded. […] Nonsteroidal antiinflammatory agents are likewise effective in this model.
# [11] = 3 mg/kg i.v. (60 sec bolus injection)
# [12] = 10 mg/kg i.v. (60 sec bolus injection)
# T3 sequence (Q63380 1-617): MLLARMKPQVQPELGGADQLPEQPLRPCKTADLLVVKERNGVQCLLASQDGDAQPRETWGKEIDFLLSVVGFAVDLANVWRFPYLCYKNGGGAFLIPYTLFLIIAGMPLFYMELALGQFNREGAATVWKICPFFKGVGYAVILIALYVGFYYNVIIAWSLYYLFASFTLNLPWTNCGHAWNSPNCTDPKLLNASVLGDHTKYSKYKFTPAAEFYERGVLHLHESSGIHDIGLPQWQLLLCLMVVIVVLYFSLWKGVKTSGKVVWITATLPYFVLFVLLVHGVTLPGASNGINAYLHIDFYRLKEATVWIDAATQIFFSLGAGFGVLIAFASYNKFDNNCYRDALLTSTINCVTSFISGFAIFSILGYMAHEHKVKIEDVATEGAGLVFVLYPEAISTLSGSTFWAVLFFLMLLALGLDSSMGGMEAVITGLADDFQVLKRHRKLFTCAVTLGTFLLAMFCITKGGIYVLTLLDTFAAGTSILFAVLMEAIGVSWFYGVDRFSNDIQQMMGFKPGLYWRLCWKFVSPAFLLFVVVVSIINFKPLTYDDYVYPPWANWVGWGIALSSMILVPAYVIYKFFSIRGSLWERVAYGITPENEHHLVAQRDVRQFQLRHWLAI
# T1 sequence (P31652 whole entry): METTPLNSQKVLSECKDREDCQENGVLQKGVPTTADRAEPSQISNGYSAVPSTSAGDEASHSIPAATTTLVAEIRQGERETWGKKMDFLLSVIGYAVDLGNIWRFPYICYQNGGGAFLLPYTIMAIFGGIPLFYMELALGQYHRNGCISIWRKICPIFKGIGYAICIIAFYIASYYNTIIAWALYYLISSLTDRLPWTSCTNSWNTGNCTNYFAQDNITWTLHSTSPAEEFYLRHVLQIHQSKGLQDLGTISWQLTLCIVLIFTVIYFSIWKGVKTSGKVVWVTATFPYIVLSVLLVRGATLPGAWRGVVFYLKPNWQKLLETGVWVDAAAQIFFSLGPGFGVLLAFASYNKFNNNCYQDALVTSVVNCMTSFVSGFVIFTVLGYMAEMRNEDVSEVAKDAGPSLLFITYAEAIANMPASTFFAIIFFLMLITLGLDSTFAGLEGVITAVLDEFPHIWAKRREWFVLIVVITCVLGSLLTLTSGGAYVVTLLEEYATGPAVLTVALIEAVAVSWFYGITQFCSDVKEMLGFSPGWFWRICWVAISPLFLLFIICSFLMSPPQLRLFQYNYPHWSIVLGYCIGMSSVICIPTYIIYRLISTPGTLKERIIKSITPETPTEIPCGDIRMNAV
# T4 sequence (H0WCX4 1-619): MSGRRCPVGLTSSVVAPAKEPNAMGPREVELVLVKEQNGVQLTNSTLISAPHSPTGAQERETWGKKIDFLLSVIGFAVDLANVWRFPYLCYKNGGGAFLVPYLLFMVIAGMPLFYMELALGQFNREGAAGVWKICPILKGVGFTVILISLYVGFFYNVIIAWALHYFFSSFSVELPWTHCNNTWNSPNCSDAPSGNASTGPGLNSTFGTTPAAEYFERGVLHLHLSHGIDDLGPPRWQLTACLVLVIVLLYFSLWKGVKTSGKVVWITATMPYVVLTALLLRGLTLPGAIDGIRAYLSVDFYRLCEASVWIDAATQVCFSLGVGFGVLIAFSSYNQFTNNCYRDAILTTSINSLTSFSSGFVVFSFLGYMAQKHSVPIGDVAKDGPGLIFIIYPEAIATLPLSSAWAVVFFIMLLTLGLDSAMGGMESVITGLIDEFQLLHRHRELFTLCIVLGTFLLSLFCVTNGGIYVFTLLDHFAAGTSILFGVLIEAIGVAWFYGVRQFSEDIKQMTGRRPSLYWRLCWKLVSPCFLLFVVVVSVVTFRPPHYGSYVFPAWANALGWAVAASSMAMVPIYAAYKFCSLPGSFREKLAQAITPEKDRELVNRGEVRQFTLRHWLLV
smiles,measurement,setting,value
NCCCNCCCNCCCNC(=O)Cc1c[nH]c2ccc(F)cc12 [Compound 9],LTP Assay (block of the induction of LTP),induction of LTP,no block
same,"IC50, prevention of sound-induced seizures",sound-induced seizures; intracerebroventricular (i.c.v.) injection,4.77 µg
same,IC50,NMDA receptor [1],1.2 µM
same,Suppression of NMDA Receptor-Mediated Synaptic Transmission (concentration which suppresses),NMDA receptor [2],10 to 100 µM
same,Drop in Mean Arterial Blood Pressure,"[3]; 4.5 μmoles/kg i.v., rats",75 mm Hg at
same,Drop in Mean Arterial Blood Pressure: duration,"[3]; 4.5 μmoles/kg i.v., rats","i.v., 90 min"
same,duration of the hypotensive effect,[3]; systemic administration in rats,approximately 30 min
same,% inhibition of [3H]MK-801 binding at the stated concentration (IC50 study incomplete),[4]; at 100 μM,(10% at 100 μM)^d
same,IC50,[4],> 100 µM
same,"TD50, acute motor impairment",motor performance,14.8 µg
CC(CN)C(c1cccc(Cl)c1)c1cccc(Cl)c1 (stereo not drawn) [Compound 46],"Monoamine uptake binding assays: serotonin uptake binding assay, percent block",serotonin uptake site; at 0.1 μM,10^g10% at
same,"Monoamine uptake binding assays: serotonin uptake binding assay, percent block",serotonin uptake site; at 10 μM,0.1^h75% at
same,ED50,sound-induced seizures; ip,25 mg/kg
same,pIC50,L-type calcium channel,6.17
same,IC50,NMDA receptor [1],0.013 µM
same,"Monoamine uptake binding assays: norepinephrine uptake binding assay, percent block",[5]; at 0.1 μM,10^f7% at
same,"Monoamine uptake binding assays: norepinephrine uptake binding assay, percent block",[5]; at 10 μM,0.1^g64% at
same,neuroprotectant activity in a rat model of focal ischemic stroke,focal ischemic stroke,no significant neuroprotectant activity
same,IC50,[4],5.2 µM
same,"Monoamine uptake binding assays: dopamine uptake binding assay, percent block",dopamine uptake site; at 0.1 μM,40% at
same,"Monoamine uptake binding assays: dopamine uptake binding assay, percent block",dopamine uptake site; at 10 μM,0.1^f97% at
same,TD50,"in vivo; Frings, ip",18 to 21 mg/kg
same,Central muscarinic cholinergic receptor: percent block of [3H]QNB binding,[6]; at 0.1 μM,33% at.
same,Central muscarinic cholinergic receptor: percent block of [3H]QNB binding,[6]; at 10 μM,0.189% at
"Cc1ccc(F)cc1C(CCN)c1cc(F)ccc1C [Compound 58, 3,3-bis(3-fluoro-6-methylphenyl)-1-propylamine]","Monoamine uptake binding assays: serotonin uptake binding assay, percent block",serotonin uptake site; at 0.1 μM,10^g27% at
same,"Monoamine uptake binding assays: serotonin uptake binding assay, percent block",serotonin uptake site; at 10 μM,0.1^h95% at
same,ED50,sound-induced seizures; ip,0.9 mg/kg
same,pIC50,L-type calcium channel,5.59
same,IC50,NMDA receptor [1],0.028 µM
same,"Monoamine uptake binding assays: norepinephrine uptake binding assay, percent block",[5]; at 0.1 μM,10^f1% at
same,"Monoamine uptake binding assays: norepinephrine uptake binding assay, percent block",[5]; at 10 μM,0.1^g67% at
same,neuroprotectant activity in a rat model of focal ischemic stroke,focal ischemic stroke,no significant neuroprotectant activity
same,no significant cardiovascular activity in anesthetized rats at doses up to,[3],up to 2 mg/kg
same,IC50,[4],0.203 µM
same,"Monoamine uptake binding assays: dopamine uptake binding assay, percent block",dopamine uptake site; at 0.1 μM,0% at
same,"Monoamine uptake binding assays: dopamine uptake binding assay, percent block",dopamine uptake site; at 10 μM,0.1^f45% at
same,TD50,"in vivo; Frings, ip",14.5 mg/kg
same,Central muscarinic cholinergic receptor: percent block of [3H]QNB binding,[6]; at 0.1 μM,1% at
same,Central muscarinic cholinergic receptor: percent block of [3H]QNB binding,[6]; at 10 μM,0.148% at
"CCNCCC(c1cccc(F)c1)c1cccc(F)c1 [Compound 59, N-ethyl-3,3-bis(3-fluorophenyl)-1-propylamine]","Monoamine uptake binding assays: serotonin uptake binding assay, percent block",serotonin uptake site; at 0.1 μM,10^g14% at
same,"Monoamine uptake binding assays: serotonin uptake binding assay, percent block",serotonin uptake site; at 10 μM,0.1^h86% at
same,ED50,sound-induced seizures; ip,2.7 mg/kg
same,IC50,NMDA receptor [1],0.272 µM
same,"Monoamine uptake binding assays: norepinephrine uptake binding assay, percent block",[5]; at 0.1 μM,10^f7% at
same,"Monoamine uptake binding assays: norepinephrine uptake binding assay, percent block",[5]; at 10 μM,0.1^g51% at
same,"seizure threshold, i.v. Metrazol test",seizure threshold; 11.7 mg/kg i.p.,a reduction in seizure threshold
same,neuroprotectant activity in a rat model of focal ischemic stroke,focal ischemic stroke,no significant neuroprotectant activity
same,no significant cardiovascular activity in anesthetized rats at doses up to,[3],up to 10 mg/kg
same,IC50,[4],0.453 µM
same,"Monoamine uptake binding assays: dopamine uptake binding assay, percent block",dopamine uptake site; at 0.1 μM,2% at
same,"Monoamine uptake binding assays: dopamine uptake binding assay, percent block",dopamine uptake site; at 10 μM,0.1^f78% at
same,TD50,"in vivo; Frings, ip",7.8 mg/kg
same,Central muscarinic cholinergic receptor: percent block of [3H]QNB binding,[6]; at 0.1 μM,9% at
same,Central muscarinic cholinergic receptor: percent block of [3H]QNB binding,[6]; at 10 μM,0.187% at
"CNCCC(c1cccc(F)c1)c1cccc(F)c1 [Compound 60, N-methyl-3,3-bis(3-fluorophenyl)-1-propylamine]",dose without neuronal vacuolization,neuronal vacuolization; i.p.,20 mg/kg
same,dose without neuronal vacuolization,neuronal vacuolization; i.v.,10 mg/kg
same,behavioral effects,behavior [7]; 16 mg/kg i.v.,"Straub tail, convulsions, and death"
same,behavioral effects,behavior [7]; dose of a mg/kg i.v.,"excitation, stereotypies, increased reactivity to touch, increased muscle tone, and tremor"
same,behavioral effects,behavior [7]; doses up to 4 mg/kg i.v.,no significant behavioral effects
same,ED50,[8],8.17 mg/kg
same,pIC50,"serotonin uptake site; read-out: Monoamine uptake binding assays: serotonin uptake binding assay, IC50",7.17
same,ED50,sound-induced seizures; ip,4.4 mg/kg
same,ED50,sound-induced seizures; oral,10 mg/kg
same,behavioral effects,behavior [9]; [11],a slight increase in respiratory rate
same,behavioral effects,behavior [9]; [12],"dilated pupils, whole body tremors, salivation, and urination"
same,behavioral effects,behavior [9]; 0.3 and 1 mg/kg i.v. (60 sec bolus injection),no significant behavioral effects
same,pIC50,L-type calcium channel,5.64
same,IC50,NMDA receptor [1],0.416 µM
same,"Monoamine uptake binding assays: norepinephrine uptake binding assay, percent block",[5]; at 0.1 μM,16%
same,"Monoamine uptake binding assays: norepinephrine uptake binding assay, percent block",[5]; at 10 μM,at 0.1^g64%
same,pIC50,"[5]; read-out: Monoamine uptake binding assays: norepinephrine uptake binding assay, IC50",6.04
same,"seizure threshold, i.v. Metrazol test",seizure threshold; 1 and 4 mg/kg i.p.,no effect on seizure threshold
same,"seizure threshold, i.v. Metrazol test",seizure threshold; 8 and 17 mg/kg i.p.,a reduction in seizure threshold
same,neuroprotectant activity in a rat model of focal ischemic stroke,focal ischemic stroke,significant neuroprotectant activity
same,IC50,[4],0.641 µM
same,"neuroprotectant activity, photothrombotic model",focal ischemia,no significant neuroprotectant activity
same,TD50,"in vivo; Frings, ip",9.2 mg/kg
same,TD50,"in vivo; Frings, po",25.6 mg/kg
same,TD50,in vivo; ip,17.3 mg/kg
same,Central muscarinic cholinergic receptor: percent block of [3H]QNB binding,[6]; at 0.1 μM,13% at
same,Central muscarinic cholinergic receptor: percent block of [3H]QNB binding,[6]; at 10 μM,0.193% at
same,neuroprotectant activity in a rat model of temporary focal ischemic stroke,temporary focal ischemia; i.p. or i.v. 1 mg/kg 2 hr and again 8 hr post-occlusion,significant neuroprotectant activity
same,neuroprotectant activity in a rat model of temporary focal ischemic stroke,temporary focal ischemia; i.v. 1 mg/kg 2 hr post-occlusion,significant neuroprotectant activity
same,cardiovascular activity,[10]; 0.3 mg/kg i.v. (60 sec bolus injection),no significant cardiovascular activity
same,mean arterial pressure,[10]; 1 mg/kg i.v. (60 sec bolus injection),transient increases in mean arterial pressure
same,heart rate,[10]; [11],transient increases in heart rate
same,mean arterial pressure,[10]; [11],transient increases in mean arterial pressure
same,heart rate,[10]; [12],transient increases in heart rate
same,mean arterial pressure,[10]; [12],larger magnitude and longer duration effects
same,changes in the ECG,[10]; doses up to 10 mg/kg i.v. (60 sec bolus injection),no significant changes in the ECG
"NC(=O)CC(c1cccc(F)c1)c1cccc(F)c1 [Compound 151, 3,3-Bis(3-fluorophenyl)propanamide]",ED50,[8],36.5 mg/kg
same,IC50,NMDA receptor [1],54.9 µM
same,"seizure threshold, i.v. Metrazol test",seizure threshold; 36.5 and 108 mg/kg i.p.,a significant increase in seizure threshold
same,IC50,[4],> 100 µM
same,TD50,in vivo; ip,108 mg/kg
"CN1CC[C@]23c4c5ccc(O)c4O[C@H]2[C@@H](O)C=C[C@H]3[C@H]1C5 [morphine, reference compound]",block of the writhing response,PBQ-elicited writhing,100%
